# Measured values: patent US8192962B2, “Processes for detecting toxic substances” (Daikin Industries, Ltd., priority 2001, dated 2012)
# System: Genes belonging to other category
# Assay: DNA chip mRNA expression in yeast, genes belonging to other category (Table 9)
# Format: cell-based, Saccharomyces cerevisiae S288C
# How it was run: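 Cells were grown at 25° C. in YPD, treated at logarithmic phase for 2 h with a chemical at a concentration inhibiting growth but not causing death, and compared with untreated cultures. Labeled cDNA was hybridized to a DNA chip carrying all yeast genes, and the expression ratio was taken from scanner fluorescence.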
structure (smiles),measurement,setting,value
"S=C([S-])NCCNC(=S)[S-].[Zn+2] [(11), zinc N,N′-ethylenebis(dithiocarbamate)]",The level of expressed mRNA in the presence of chemical substance/The level of expressed mRNA in the absence of chemical substance,yeast gene YAR010C,0.9
same,The level of expressed mRNA in the presence of chemical substance/The level of expressed mRNA in the absence of chemical substance,yeast gene YBL005W-A,0.8
same,The level of expressed mRNA in the presence of chemical substance/The level of expressed mRNA in the absence of chemical substance,yeast gene YBL041W,1.6
same,The level of expressed mRNA in the presence of chemical substance/The level of expressed mRNA in the absence of chemical substance,yeast gene YBL043W,1.5
same,The level of expressed mRNA in the presence of chemical substance/The level of expressed mRNA in the absence of chemical substance,yeast gene YBL078C,4.6
same,The level of expressed mRNA in the presence of chemical substance/The level of expressed mRNA in the absence of chemical substance,yeast gene YBL101C,0.8
same,The level of expressed mRNA in the presence of chemical substance/The level of expressed mRNA in the absence of chemical substance,yeast gene YBL101W-A,1.2
same,The level of expressed mRNA in the presence of chemical substance/The level of expressed mRNA in the absence of chemical substance,yeast gene YBL102W,1.2
same,The level of expressed mRNA in the presence of chemical substance/The level of expressed mRNA in the absence of chemical substance,yeast gene YBR009C,0.8
same,The level of expressed mRNA in the presence of chemical substance/The level of expressed mRNA in the absence of chemical substance,yeast gene YBR031W,0.9
same,The level of expressed mRNA in the presence of chemical substance/The level of expressed mRNA in the absence of chemical substance,yeast gene YBR128C,1.3
same,The level of expressed mRNA in the presence of chemical substance/The level of expressed mRNA in the absence of chemical substance,yeast gene YBR177C,0.6
same,The level of expressed mRNA in the presence of chemical substance/The level of expressed mRNA in the absence of chemical substance,yeast gene YBR214W,3.2
same,The level of expressed mRNA in the presence of chemical substance/The level of expressed mRNA in the absence of chemical substance,yeast gene YBR239C,0.7
same,The level of expressed mRNA in the presence of chemical substance/The level of expressed mRNA in the absence of chemical substance,yeast gene YBR290W,1.2
same,The level of expressed mRNA in the presence of chemical substance/The level of expressed mRNA in the absence of chemical substance,yeast gene YCL020W,1.3
same,The level of expressed mRNA in the presence of chemical substance/The level of expressed mRNA in the absence of chemical substance,yeast gene YCL027W,0.9
same,The level of expressed mRNA in the presence of chemical substance/The level of expressed mRNA in the absence of chemical substance,yeast gene YCL067C,1.6
same,The level of expressed mRNA in the presence of chemical substance/The level of expressed mRNA in the absence of chemical substance,yeast gene YCR004C,1.9
same,The level of expressed mRNA in the presence of chemical substance/The level of expressed mRNA in the absence of chemical substance,yeast gene YCR039C,1.2
same,The level of expressed mRNA in the presence of chemical substance/The level of expressed mRNA in the absence of chemical substance,yeast gene YCR062W,1.2
same,The level of expressed mRNA in the presence of chemical substance/The level of expressed mRNA in the absence of chemical substance,yeast gene YCR067C,1.2
same,The level of expressed mRNA in the presence of chemical substance/The level of expressed mRNA in the absence of chemical substance,yeast gene YCR069W,1.3
same,The level of expressed mRNA in the presence of chemical substance/The level of expressed mRNA in the absence of chemical substance,yeast gene YCR071C,1.1
same,The level of expressed mRNA in the presence of chemical substance/The level of expressed mRNA in the absence of chemical substance,yeast gene YCR088W,1.0
same,The level of expressed mRNA in the presence of chemical substance/The level of expressed mRNA in the absence of chemical substance,yeast gene YCR096C,1.4
same,The level of expressed mRNA in the presence of chemical substance/The level of expressed mRNA in the absence of chemical substance,yeast gene YCR106W,1.2
same,The level of expressed mRNA in the presence of chemical substance/The level of expressed mRNA in the absence of chemical substance,yeast gene YDL008W,0.9
same,The level of expressed mRNA in the presence of chemical substance/The level of expressed mRNA in the absence of chemical substance,yeast gene YDL061C,1.4
same,The level of expressed mRNA in the presence of chemical substance/The level of expressed mRNA in the absence of chemical substance,yeast gene YDL143W,1.3
same,The level of expressed mRNA in the presence of chemical substance/The level of expressed mRNA in the absence of chemical substance,yeast gene YDL238C,1.1
same,The level of expressed mRNA in the presence of chemical substance/The level of expressed mRNA in the absence of chemical substance,yeast gene YDR055W,2.2
same,The level of expressed mRNA in the presence of chemical substance/The level of expressed mRNA in the absence of chemical substance,yeast gene YDR080W,1.2
same,The level of expressed mRNA in the presence of chemical substance/The level of expressed mRNA in the absence of chemical substance,yeast gene YDR084C,0.7
same,The level of expressed mRNA in the presence of chemical substance/The level of expressed mRNA in the absence of chemical substance,yeast gene YDR085C,1.7
same,The level of expressed mRNA in the presence of chemical substance/The level of expressed mRNA in the absence of chemical substance,yeast gene YDR104C,1.0
same,The level of expressed mRNA in the presence of chemical substance/The level of expressed mRNA in the absence of chemical substance,yeast gene YDR115W,1.2
same,The level of expressed mRNA in the presence of chemical substance/The level of expressed mRNA in the absence of chemical substance,yeast gene YDR181C,0.8
same,The level of expressed mRNA in the presence of chemical substance/The level of expressed mRNA in the absence of chemical substance,yeast gene YDR188W,0.9
same,The level of expressed mRNA in the presence of chemical substance/The level of expressed mRNA in the absence of chemical substance,yeast gene YDR257C,1.3
same,The level of expressed mRNA in the presence of chemical substance/The level of expressed mRNA in the absence of chemical substance,yeast gene YDR259C,1.2
same,The level of expressed mRNA in the presence of chemical substance/The level of expressed mRNA in the absence of chemical substance,yeast gene YDR264C,0.9
same,The level of expressed mRNA in the presence of chemical substance/The level of expressed mRNA in the absence of chemical substance,yeast gene YDR276C,1.4
same,The level of expressed mRNA in the presence of chemical substance/The level of expressed mRNA in the absence of chemical substance,yeast gene YDR304C,1.2
same,The level of expressed mRNA in the presence of chemical substance/The level of expressed mRNA in the absence of chemical substance,yeast gene YDR315C,1.1
same,The level of expressed mRNA in the presence of chemical substance/The level of expressed mRNA in the absence of chemical substance,yeast gene YDR358W,1.0
same,The level of expressed mRNA in the presence of chemical substance/The level of expressed mRNA in the absence of chemical substance,yeast gene YDR378C,0.8
same,The level of expressed mRNA in the presence of chemical substance/The level of expressed mRNA in the absence of chemical substance,yeast gene YDR382W,1.2
same,The level of expressed mRNA in the presence of chemical substance/The level of expressed mRNA in the absence of chemical substance,yeast gene YDR388W,1.6
same,The level of expressed mRNA in the presence of chemical substance/The level of expressed mRNA in the absence of chemical substance,yeast gene YDR407C,1.2
